Reference: the NIST ThermoML archive (doi:10.1021/je800579j)

Experiment: refractive index (Na D-line) (dimensionless); xn = mol fraction of the nth substance listed
Conditions: Liquid, Standard Abbe refractometry

Cc1ccccc1C [1,2-dimethylbenzene] + C1COCCO1
refractive index
Conditions	288.15 K	293.15 K	298.15 K	303.15 K	308.15 K	313.15 K	318.15 K
x2 = 0	1.5083	1.5055	1.5029	1.5002	1.4975	1.4948	1.4921
x2 = 0.0672	1.5029	1.5001	1.4974	1.4946	1.4918	1.489	1.4862
x2 = 0.1391	1.4972	1.4944	1.4917	1.4889	1.4861	1.4833	1.4804
x2 = 0.2103	1.4914	1.4886	1.4858	1.4831	1.4803	1.4775	1.4746
x2 = 0.2853	1.4853	1.4825	1.4798	1.4771	1.4743	1.4715	1.4687
x2 = 0.3543	1.4796	1.4769	1.4742	1.4714	1.4687	1.4659	1.4632
x2 = 0.4293	1.4734	1.4707	1.4681	1.4654	1.4627	1.46	1.4573
x2 = 0.5092	1.4667	1.4641	1.4615	1.4589	1.4562	1.4535	1.4509
x2 = 0.581	1.4606	1.458	1.4554	1.4528	1.4502	1.4476	1.445
x2 = 0.6518	1.4545	1.452	1.4495	1.4469	1.4444	1.4418	1.4392
x2 = 0.7248	1.4482	1.4457	1.4433	1.4408	1.4383	1.4357	1.4332
x2 = 0.7888	1.4427	1.4402	1.4378	1.4354	1.4329	1.4304	1.4279
x2 = 0.8595	1.4365	1.4342	1.4318	1.4295	1.4271	1.4246	1.4221
x2 = 0.9298	1.4305	1.4282	1.4259	1.4236	1.4213	1.419	1.4166

Cc1cc(C)cc(C)c1 [1,3,5-trimethylbenzene] + C1COCCO1
refractive index
Conditions	288.15 K	293.15 K	298.15 K	303.15 K	308.15 K	313.15 K	318.15 K
x2 = 0	1.502	1.4995	1.4969	1.4944	1.4918	1.4893	1.4868
x2 = 0.0696	1.4969	1.4942	1.4915	1.4888	1.4861	1.4834	1.4807
x2 = 0.1408	1.4916	1.4889	1.4862	1.4835	1.4807	1.4779	1.4751
x2 = 0.2098	1.4865	1.4838	1.4811	1.4784	1.4756	1.4729	1.4701
x2 = 0.28	1.4812	1.4786	1.4758	1.4731	1.4703	1.4676	1.4648
x2 = 0.3558	1.4755	1.4729	1.4702	1.4675	1.4648	1.4621	1.4593
x2 = 0.4276	1.4701	1.4675	1.4648	1.4622	1.4595	1.4568	1.4542
x2 = 0.5066	1.4641	1.4615	1.4589	1.4563	1.4537	1.451	1.4484
x2 = 0.5801	1.4584	1.4558	1.4532	1.4506	1.448	1.4454	1.4428
x2 = 0.6548	1.4525	1.45	1.4474	1.4449	1.4423	1.4397	1.4371
x2 = 0.7227	1.447	1.4445	1.442	1.4395	1.437	1.4344	1.4318
x2 = 0.7936	1.4412	1.4388	1.4363	1.4338	1.4313	1.4288	1.4263
x2 = 0.8663	1.4354	1.433	1.4306	1.4282	1.4257	1.4233	1.4208
x2 = 0.9319	1.43	1.4277	1.4254	1.4231	1.4208	1.4184	1.4161

Cc1cccc(C)c1 [1,3-dimethylbenzene] + C1COCCO1
refractive index
Conditions	288.15 K	293.15 K	298.15 K	303.15 K	308.15 K	313.15 K	318.15 K
x2 = 0	1.4999	1.4974	1.4948	1.4922	1.4896	1.487	1.4844
x2 = 0.0938	1.4933	1.4907	1.488	1.4853	1.4826	1.4799	1.4772
x2 = 0.1532	1.489	1.4864	1.4837	1.4811	1.4783	1.4756	1.4728
x2 = 0.2046	1.4852	1.4826	1.4799	1.4772	1.4745	1.4718	1.4691
x2 = 0.2698	1.4805	1.4779	1.4753	1.4726	1.4699	1.4672	1.4645
x2 = 0.3374	1.4755	1.473	1.4704	1.4677	1.4651	1.4624	1.4597
x2 = 0.4002	1.4709	1.4684	1.4658	1.4632	1.4606	1.458	1.4553
x2 = 0.4714	1.4656	1.4631	1.4606	1.458	1.4555	1.4529	1.4503
x2 = 0.5487	1.4598	1.4574	1.4549	1.4524	1.4498	1.4473	1.4447
x2 = 0.63	1.4536	1.4512	1.4487	1.4462	1.4437	1.4412	1.4387
x2 = 0.7182	1.4468	1.4444	1.442	1.4395	1.4371	1.4346	1.4321
x2 = 0.8035	1.4401	1.4378	1.4354	1.4329	1.4305	1.428	1.4256
x2 = 0.8708	1.4348	1.4325	1.4302	1.4279	1.4255	1.4231	1.4206
x2 = 0.9324	1.4299	1.4277	1.4255	1.4232	1.4209	1.4186	1.4163

Cc1ccc(C)cc1 [1,4-dimethylbenzene] + C1COCCO1
refractive index
Conditions	288.15 K	293.15 K	298.15 K	303.15 K	308.15 K	313.15 K	318.15 K
x2 = 0	1.4985	1.4959	1.4933	1.4907	1.4881	1.4855	1.483
x2 = 0.0716	1.4937	1.4911	1.4884	1.4858	1.4831	1.4805	1.4778
x2 = 0.1445	1.4887	1.4861	1.4834	1.4808	1.4781	1.4754	1.4727
x2 = 0.2132	1.4839	1.4813	1.4786	1.476	1.4733	1.4706	1.468
x2 = 0.2871	1.4787	1.4761	1.4734	1.4708	1.4681	1.4655	1.4628
x2 = 0.3582	1.4736	1.471	1.4684	1.4658	1.4632	1.4606	1.458
x2 = 0.4358	1.468	1.4655	1.4629	1.4604	1.4578	1.4552	1.4526
x2 = 0.5042	1.4629	1.4604	1.4579	1.4554	1.4529	1.4503	1.4478
x2 = 0.5846	1.4569	1.4544	1.452	1.4495	1.447	1.4445	1.442
x2 = 0.6543	1.4516	1.4492	1.4467	1.4443	1.4418	1.4394	1.4369
x2 = 0.7249	1.4462	1.4438	1.4414	1.439	1.4365	1.4341	1.4316
x2 = 0.7923	1.441	1.4386	1.4362	1.4338	1.4314	1.429	1.4266
x2 = 0.8623	1.4355	1.4332	1.4309	1.4286	1.4262	1.4238	1.4214
x2 = 0.9311	1.4301	1.4279	1.4256	1.4234	1.4211	1.4188	1.4165
